Experiments:
[1] = Solvent solubility evaluation test (amount dissolved in 100 g of cyclohexanone); type: physicochemical
Procedure: <Solvent Solubility Evaluation Test>
The 4,4′-Diacetoxy-3,3′,5,5′-tetra(acetoxymethyl)biphenyl obtained in Example 1 (hereinafter referred to as “Present Compound A”) and 4,4′-di(acetoxy)biphenyl (hereinafter referred to as “Comparative Compound a”) were measured for the amounts dissolved in 100 g of cyclohexanone at 40° C. and 60° C. (hereinunder referred to as “solubility (g)”).

[2] = amount dissolved in 100 g of cyclohexanone at 40° C.
[3] = amount dissolved in 100 g of cyclohexanone at 60° C.

Row | Compound | Solubility [1, 2] [g] | Solubility [1, 3] [g] | melting point [°C]
1 | CC(=O)OCc1cc(-c2cc(COC(C)=O)c(OC(C)=O)c(COC(C)=O)c2)cc(COC(C)=O)c1OC(C)=O [Present Compound A, 4,4′-Diacetoxy-3,3′,5,5′-tetra(acetoxymethyl)biphenyl] | 39.4 | 89.8 | 116.2
2 | CC(=O)Oc1ccc(-c2ccc(OC(C)=O)cc2)cc1 [Comparative Compound a, 4,4′-di(acetoxy)biphenyl, reference compound] | 9.0 | 12.8 | 

Source: US11932598B2, “Polyacyloxymethyl-4,4′-acyloxybiphenyl compound” (HONSHU CHEMICAL INDUSTRY CO., LTD., priority 2018, dated 2024)
